# Results from the supplement of paper PMC12532568.
# Test system: Danio rerio larvae Tg(actc1b:ZsGreen-LC3), 3 dpf
# Assay: LC3 puncta relative area vs vehicle (mean) (log2 fold change); higher = more autophagy
# Details: treatment time 16 h
# Protocol: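 Transgenic ZsGreen-LC3 zebrafish larvae (2 dpf) were treated for 16 h with natural bioactives at 10, 50, 100 or 250 µM. Skeletal-muscle LC3 puncta area was measured by high-content imaging with or without 4 h of 100 mM NH4Cl, normalised to vehicle, and reported as the mean log2 fold change over 4–21 larvae.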
Compound,"LC3 puncta (log2) (NH4Cl: + NH4Cl, 10 µM)","LC3 puncta (log2) (NH4Cl: + NH4Cl, 50 µM)","LC3 puncta (log2) (NH4Cl: + NH4Cl, 100 µM)","LC3 puncta (log2) (NH4Cl: - NH4Cl, 10 µM)","LC3 puncta (log2) (NH4Cl: - NH4Cl, 50 µM)","LC3 puncta (log2) (NH4Cl: - NH4Cl, 100 µM)","LC3 puncta (log2) (NH4Cl: - NH4Cl, 250 µM)","LC3 puncta (log2) (NH4Cl: + NH4Cl, 250 µM)"
CC1=C(/C=C/C(C)=C/C=C/C(C)=C/CO)C(C)(C)CCC1 [Retinol],1.19,0.124,0.0946,0.12,-0.269,0.255,0.596,–
CC(=O)C(C)=O [Biacetyl],0.347,0.581,0.946,0.0128,0.343,0.699,0.218,0.981
CC(O)CC(=O)O (stereo not given) [3-Hydroxybutyrate],0.306,0.707,0.353,0.219,0.327,0.00999,0.0766,0.884
O=C(O)CCC(=O)O [Succinic acid],0.752,0.769,0.297,0.044,0.06,-0.705,-0.0293,0.806
N[C@@H](CCC(=O)O)C(=O)O [L-glutamic acid],0.755,0.239,0.876,0.144,0.165,0.702,0.322,0.997
CCCCCCCCCCCCCCCCCC(=O)O [stearic acid],0.718,0.677,0.635,0.39,0.392,0.127,0.245,1.13
CCC(O)CC(=O)O (stereo not given) [b-Hydroxyvalerate],0.933,0.6,1.08,0.353,0.272,0.404,0.37,1.21
CCCC(=O)[O-].[Na+] [Butyric acid sodium salt],0.256,0.65,0.615,0.036,0.362,0.26,-0.0615,0.513
CCCCCCCC/C=C\CCCCCCCCCCCCCC(=O)O [Nervonic acid],0.639,0.888,1.09,-0.0528,0.0416,0.723,0.0463,0.707
C[N+](C)(C)CCO.C[N+](C)(C)CCO.C[N+](C)(C)CCO.O=P([O-])([O-])[O-] [Tricholine phosphate],0.7,0.208,-0.172,0.0959,0.0907,0.25,-0.277,0.38
O=C(O)c1ccccc1 [Benzoic acid],-0.0668,0.917,1.5,0.129,0.383,1.14,–,–
